Experimental data published in US20100267720A1, “Crystalline Forms of 2-Hydroxy-3- [5- (Morpholin- 4- Ylmethyl) Pyridin-2-YL] IH- Indole- 5 -Carbonitrile Citrate” (ASTRAZENECA AB, priority 2007, published 2010).

Tests used:
[1] = Hygroscopicity by Dynamic Vapour Sorption Analysis (DVS); type: physicochemical; details: for moisture uptake: 25° C.
Experimental: The studies were undertaken using Dynamic Vapour Sorption Apparatus (DVS, Surface Measurement Systems, London UK). The apparatus consists of Cahn micobalance housed inside a temperature-controlled cabinet. All experiments were performed at 25° C. The DVS was used to characterize the moisture uptake (w/w %) at different relative humidities (RH). Samples (5-10 mg) were weighed directly into the DSV sample cup and exposed to different relative humidities.

[2] = Chemical stability of the salt forms; type: physicochemical; details: compared with the hydrochloride salt of WO 03/082853
Description: The term “chemical stability” means that the compound can be stored in an isolated form, or in the form of a formulation in which it is provided in admixture with pharmaceutically acceptable carriers, diluents or adjuvants (e.g., in an oral dosage form, such as tablet, capsule, etc.), under normal storage conditions, with little or no chemical degradation or decomposition.

[3] = 40% relative humidity (RH), citrate
[4] = 60% relative humidity (RH), citrate
[5] = 80% relative humidity (RH), citrate

SMILES | moisture uptake [1, 3] | moisture uptake [1, 4] | moisture uptake [1, 5] | hygroscopicity (in words) ([1]; citrate) | chemical stability (in words) [2] | hygroscopicity (in words) ([1]; listed as citrate salt of 2-hydroxy-3-[5-(morpholin-4-ylmethyl)pyridin-2-yl]1H-indole-5-ca)
N#Cc1ccc2[nH]c(O)c(-c3ccc(CN4CCOCC4)cn3)c2c1.O=C(O)CC(O)(CC(=O)O)C(=O)O [Citrate Form E, 2-Hydroxy-3-[5-(morpholin-4-ylmethyl)pyridin-2-yl]1H-indole-5-carbonitrile citrate] | 0.45 w/w % | 0.52 w/w % | 0.60 w/w % | very low hygroscopicity |  | 
N#Cc1ccc2[nH]c(O)c(-c3ccc(CN4CCOCC4)cn3)c2c1.O=C(O)CC(O)(CC(=O)O)C(=O)O [2-hydroxy-3-[5-(morpholin-4-ylmethyl)pyridin-2-yl]1H-indole-5-carbonitrile citrate] |  |  |  |  | improved chemical stability over the hydrochloride salt | lower hygroscopicity than the hydrochloride salt
N#Cc1ccc2[nH]c(O)c(-c3ccc(CN4CCOCC4)cn3)c2c1.O=C(O)CC(O)(CC(=O)O)C(=O)O [Citrate Form D, 2-Hydroxy-3-[5-(morpholin-4-ylmethyl)pyridin-2-yl]1H-indole-5-carbonitrile citrate] | 3.2 w/w % | 3.6 w/w % | 3.7 w/w % |  |  | 
